This passage reports mortality of insects and pest or weed control results from US20150031733A1, “TETRAZOLINONE COMPOUNDS AND ITS USE” (SUMITOMO CHEMICAL COMPANY, LIMITED, priority 2012, published 2015).

The first assay has as its system housefly (Musca domestica). The assay is described as follows: Housefly mortality test on treated filter paper. It counts as in vivo. The conditions noted are these: 500 ppm solution 0.7 mL on filter paper, female adult, after 24 hours. The protocol: Each formulation containing the present Compounds […] prepared according to the above-mentioned Formulation examples was diluted with water so that the active ingredient concentration was set to 500 ppm and the testing drug solutions were prepared. […] Ten (10) individuals of female adult housefly (Musca domestica) was released into the polyethylene cup and the cup was covered with the lid. After 24 hours, the number of the dead insects was counted. The mortality of insects was calculated by the following equation. Mortality of insects(%)=(Number of dead insects/Number of tested insects)×100
The compound `Cc1cccc(-n2nnn(C)c2=O)c1COc1nc(-c2ccc(I)cc2)cs1` [Compound T033, 2-{[1-(4,5-dihydro-4-methyl-5-oxo-1H-tetrazole-1-yl)-3-methylphenyl-2-yl]methyloxy}-4-(4-iodophenyl)thiazole] displayed a mortality of insects of 100%. Compound `Cc1ccc(-c2csc(OCc3c(C)cccc3-n3nnn(C)c3=O)n2)cc1` [Compound T039, 2-{[1-(4,5-dihydro-4-methyl-5-oxo-1H-tetrazole-1-yl)-3-methylphenyl-2-yl]methyloxy}-4-(4-methylphenyl)thiazole] yielded a mortality of insects of 100%.

Another assay deals with cabbage moth (Plutella xylostella). The assay is described as follows: Cabbage moth mortality test on sprayed cabbage. In kind it is in vivo. The conditions noted are these: 500 ppm, 20 mL/cup sprayed on cabbage, three instar larval stages, after 5 days. The protocol:
The testing drug solutions to be used in this Test example were prepared by diluting the formulations prepared according to the above-mentioned Formulation examples with an ion-exchange water so that the active ingredient concentration was set to 500 ppm. Cabbage (green ball) was planted in a polyethylene cup and was grown until the third true leaf or the fourth true leaf was developed. To the cabbage (Brassicae oleracea) was sprayed the above-mentioned testing solutions in a ratio of 20 mL/cup. After the drug solutions were dried, to a polyethylene cup (diameter 5.5 cm) covered with a filter paper on the bottom, the cabbage cut out from the root was installed and five heads of cabbage moth (Plutella xylostella) at the three instar larval stages were released into the cup and the cup was covered with the lid. The cup was held at 25° C. and after 5 days, the number of the surviving insects was counted and the mortality of insects was calculated by the following equation. Mortality of insects(%)=(Number of dead insects/Number of tested insects)×100
`Cc1cccc(-n2nnn(C)c2=O)c1COc1nc(-c2ccc(Br)cc2F)cs1` [Compound T034, 2-{[1-(4,5-dihydro-4-methyl-5-oxo-1H-tetrazole-1-yl)-3-methylphenyl-2-yl]methyloxy}-4-(4-bromo-2-fluorophenyl)thiazole] had a mortality of insects of 80%. Still for that read-out and setting: the figure for `Cc1cccc(-n2nnn(C)c2=O)c1COc1nc(-c2c(F)c(F)c(F)c(F)c2F)cs1` [Compound T036, 2-{[1-(4,5-dihydro-4-methyl-5-oxo-1H-tetrazole-1-yl)-3-methylphenyl-2-yl]methyloxy}-4-(2,3,4,5,6-pentafluorophenyl)thiazole] is 80%; for `CCCCc1ccc(-c2csc(OCc3c(C)cccc3-n3nnn(C)c3=O)n2)cc1` [Compound T041, 2-{[1-(4,5-dihydro-4-methyl-5-oxo-1H-tetrazole-1-yl)-3-methylphenyl-2-yl]methyloxy}-4-(4-butylphenyl)thiazole] it is 80%.

On to `Cc1cccc(-n2nnn(C)c2=O)c1COc1nc(-c2ccc(C(C)(C)C)cc2)cs1` [Compound T042, 2-{[1-(4,5-dihydro-4-methyl-5-oxo-1H-tetrazole-1-yl)-3-methylphenyl-2-yl]methyloxy}-4-[4-(1,1-dimethylethyl)phenyl]thiazole], for which the mortality of insects came to 80%. Take `Cc1ccccc1-c1csc(OCc2c(Br)cccc2-n2nnn(C)c2=O)n1` [Compound T091, 2-{[1-(4,5-dihydro-4-methyl-5-oxo-1H-tetrazole-1-yl)-3-bromophenyl-2-yl]methyloxy}-4-(2-methylphenyl)thiazole]: the mortality of insects is on record as 80%. On the same count and under the same terms, the figure for `CCc1ccccc1-c1csc(OCc2c(C)cccc2-n2nnn(C)c2=O)n1` [Compound T125, 2-{[1-(4,5-dihydro-4-methyl-5-oxo-1H-tetrazole-1-yl)-3-methylphenyl-2-yl]methyloxy}-4-(2-ethylphenyl)thiazole] is 80%. Same read-out and setting: the figure for `Cc1cccc(-n2nnn(C)c2=O)c1COc1nc(-c2cccc(Br)c2)cs1` [Compound T145, 2-{[1-(4,5-dihydro-4-methyl-5-oxo-1H-tetrazole-1-yl)-3-methylphenyl-2-yl]methyloxy}-4-(3-bromophenyl)thiazole] is 80%.

In another assay the test system is common house mosquito (Culex pipiens pallens). The assay is described as follows: Common house mosquito larva mortality test in treated water. In kind it is in vivo. The conditions noted are these: 24 h, active ingredient concentration 3.5 ppm in water, last instar larva, after 1 day, read-out: mortality of insects. How it is done:
Each formulation containing the present Compounds […] prepared according to the above-mentioned Formulation examples was diluted with water so that the active ingredient concentration was set to 500 ppm and the testing drug solutions were prepared. The above-mentioned drug solutions 0.7 mL were added to an ion-exchange water 100 mL (an active ingredient concentration: 3.5 ppm). Twenty (20) last instar larva of common house mosquito (Culex pipiens pallens) were released into the solutions and after 1 day, the number of the dead insects was counted. The mortality of insects was calculated by the following equation. Mortality of insects(%)=(Number of dead insects/Number of tested insects)×100 The testing drug solutions to be used in this Test example were prepared by diluting the formulations prepared according to the above-mentioned Formulation examples with an ion-exchange water so that the active ingredient concentration was set to 500 ppm. The above-mentioned drug solutions 0.7 mL were added to an ion-exchange water 100 mL so that the active ingredient concentration was set to 3.5 ppm. Twenty (20) last instar larva of common house mosquito (Culex pipiens pallens) were released into the solutions and after […], the number of the dead insects was counted. The mortality of insects was calculated by the following equation. Mortality of insects(%)=(Number of dead insects/Number of tested insects)×100
For the compound `CCc1ccccc1-c1csc(OCc2c(C)cccc2-n2nnn(C)c2=O)n1` [Compound T125, 2-{[1-(4,5-dihydro-4-methyl-5-oxo-1H-tetrazole-1-yl)-3-methylphenyl-2-yl]methyloxy}-4-(2-ethylphenyl)thiazole], the pest or weed control at 3.5 ppm was determined as 100%. Regarding `COc1cc(Cl)ccc1-c1csc(OCc2c(C)cccc2-n2nnn(C)c2=O)n1` [Compound T143, 2-{[1-(4,5-dihydro-4-methyl-5-oxo-1H-tetrazole-1-yl)-3-methylphenyl-2-yl]methyloxy}-4-(4-chloro-2-methoxyphenyl)thiazole], the pest or weed control at 3.5 ppm was 100%.

The assay is the same for the next values; noted with them: 192 h, active ingredient concentration 3.5 ppm in water, last instar larva, after 8 day, read-out: mortality of insects.
Consider `Cc1cccc(-n2nnn(C)c2=O)c1COc1nc(-c2ccc(C(C)(C)C)cc2)cs1` [Compound T042, 2-{[1-(4,5-dihydro-4-methyl-5-oxo-1H-tetrazole-1-yl)-3-methylphenyl-2-yl]methyloxy}-4-[4-(1,1-dimethylethyl)phenyl]thiazole], for which the pest or weed control at 3.5 ppm was 100%. With `Cc1ccccc1-c1csc(OCc2c(Br)cccc2-n2nnn(C)c2=O)n1` [Compound T091, 2-{[1-(4,5-dihydro-4-methyl-5-oxo-1H-tetrazole-1-yl)-3-bromophenyl-2-yl]methyloxy}-4-(2-methylphenyl)thiazole], the pest or weed control at 3.5 ppm was found to be 100%. On to `CCc1cccc(-n2nnn(C)c2=O)c1COc1nc(-c2ccccc2C)cs1` [Compound T097, 2-{[1-(4,5-dihydro-4-methyl-5-oxo-1H-tetrazole-1-yl)-3-ethylphenyl-2-yl]methyloxy}-4-(2-methylphenyl)thiazole], for which the pest or weed control at 3.5 ppm came to 100%. Turning to `CCCCCCCc1ccccc1-c1csc(OCc2c(C)cccc2-n2nnn(C)c2=O)n1` [Compound T144, 2-{[1-(4,5-dihydro-4-methyl-5-oxo-1H-tetrazole-1-yl)-3-methylphenyl-2-yl]methyloxy}-4-(2-heptylphenyl)thiazole], the pest or weed control at 3.5 ppm was found to be 100%. Turning to `CCCCCCCc1cccc(-c2csc(OCc3c(C)cccc3-n3nnn(C)c3=O)n2)c1` [Compound T146, 2-{[1-(4,5-dihydro-4-methyl-5-oxo-1H-tetrazole-1-yl)-3-methylphenyl-2-yl]methyloxy}-4-(3-heptylphenyl)thiazole], the pest or weed control at 3.5 ppm was 100%. Turning to `Cn1nnn(-c2ccc(F)cc2COc2nc(-c3ccc(Br)cc3)cs2)c1=O` [Compound T147, 2-{[1-(4,5-dihydro-4-methyl-5-oxo-1H-tetrazole-1-yl)-4-fluorophenyl-2-yl]methyloxy}-4-(4-bromophenyl)thiazole], the pest or weed control at 3.5 ppm was 100%. Take `COc1ccc(C)cc1-c1csc(OCc2c(C)cccc2-n2nnn(C)c2=O)n1` [Compound T148, 2-{[1-(4,5-dihydro-4-methyl-5-oxo-1H-tetrazole-1-yl)-3-methylphenyl-2-yl]methyloxy}-4-(5-methyl-2-methoxyphenyl)thiazole]: the pest or weed control at 3.5 ppm was 100%.
